The values below come from patent US7217724B2, “Indole, indazole, and benzazole derivative” (Dainippon Sumitomo Pharma Co., Ltd., priority 2002, dated 2007).

For one test, the target named is T1, human β1-receptor (Homo sapiens, UniProt P08588).
T1 construct: THP-1 cell line, i.e., cells expressing both human β2- and β1-receptors; host or cells: THP-1 cells
Kind of test: Human β1-receptor stimulation test (cAMP production in THP-1 cells). The test is classed as cell-based. The source says: (§1) Human β3, β2 and β1-receptor stimulation test
(§2) Human β3-receptor-stimulating activity was studied using SK-N-MC cell line, i.e., cells permanently expressing human β3- and human β1-receptors (SK-N-MC cells, purchased from Dainippon Pharmaceutical Co., Ltd.), and human β2- and β1-receptor-stimulating activities were studied using THP-1 cell line, i.e., cells expressing both human β2- and β1-receptors (THP-1 cells, purchased Dainippon Pharmaceutical Co., Ltd.).
(§3) The β3-receptor stimulating activity of a test compound (10^−9 to 10^−5 M) was studied using as an index cyclic AMP (hereinafter, referred to as cAMP) producing activity of SK-N-MC cells at almost confluent in the presence of a β1-receptor inhibitor ((±)-2-hydroxy-5-(2-((2-hydroxy-3-(4-(1-methyl-4-(trifluoromethyl)-1H-imidazol-2-yl)phenoxy)propyl)-amino)ethoxy)benzamide methanesulfonate, CGP-20712A (Sigma-Aldrich), 10^−6M), wherein said SK-N-MC cells were seeded into a 96-well plate at a cell density of 2×10^4 cells/well and had been cultured for 3 days. […] The cAMP production in the cells was measured by ELISA method. […]
A general note: Changes in cAMP serve as a functional read-out for many G protein-coupled receptors.

The next test deals with β1-adrenoceptor. Put plainly: Autonomic beat of the excised right atrium specimen (positive chronotropic action, Magnus method). Also noted: species or system Hartley guinea pig. The note with it: method of Experiment 2. The protocol:
Effect of a medicament on autonomic beat of the excised right atrium specimen based on β1-adrenoceptor-stimulating activity (study on positive chronotropic action)
The heart of Hartley guinea pig was excised, and a right atrium specimen was prepared therefrom and the experiment was carried out thereon according to Magnus method. The specimen was hung at 34° C. in Krebs-Henseleit solution to which a mixed gas of 95% oxygen and 5% carbon dioxide was aerated, and loaded so that the maximum resting tension became about 0.5 g. The autonomic beat of the right atrium was detected through a pressure transducer, and the tension and the beat were continuously recorded onto a linear recorder. A medicament was cumulatively added every time the beat became plateau. […]
In order to show the divergence between β3-stimulating activity/β1-stimulating activity in the experimental results, the EC50 value of positive chronotropic action of the test compound of Examples obtained in Experiment 2 was divided by the EC50 value of human β3-stimulating activity of said compound obtained in Experiment 1, which is the main activity in Experiment 1. The results are expressed by relative values, which are calculated by counting the value of the reference compound (AJ 9677) as 1.

Another test concerns the target T2, human β3-receptor (Homo sapiens, UniProt P13945).
T2 construct: SK-N-MC cell line, i.e., cells permanently expressing human β3- and human β1-receptors; host or cells: SK-N-MC cells
Put plainly: Human β3-receptor stimulation test (cAMP production in SK-N-MC cells). The note with it: in the presence of β1-receptor inhibitor CGP-20712A 10^−6 M, read-out: EC50 value of β3-stimulating activity. The test is classed as cell-based.
Description: as §1, §2, §3

In a further test the target is T3, human β2-receptor (Homo sapiens, UniProt P07550).
T3 construct: THP-1 cell line, i.e., cells expressing both human β2- and β1-receptors; host or cells: THP-1 cells
T3 sequence (P07550 whole entry): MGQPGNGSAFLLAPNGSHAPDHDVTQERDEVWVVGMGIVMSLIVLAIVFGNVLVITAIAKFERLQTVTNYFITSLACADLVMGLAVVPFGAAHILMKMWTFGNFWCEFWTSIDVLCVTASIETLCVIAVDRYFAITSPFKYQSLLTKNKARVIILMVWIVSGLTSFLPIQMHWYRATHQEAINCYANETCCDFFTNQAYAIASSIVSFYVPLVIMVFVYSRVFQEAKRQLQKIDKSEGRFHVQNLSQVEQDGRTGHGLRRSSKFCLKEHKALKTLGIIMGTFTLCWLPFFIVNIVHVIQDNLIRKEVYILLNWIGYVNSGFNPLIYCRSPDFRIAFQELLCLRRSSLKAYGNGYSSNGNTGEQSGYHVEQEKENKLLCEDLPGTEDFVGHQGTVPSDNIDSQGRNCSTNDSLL
Kind of test: Human β2-receptor stimulation test (cAMP production in THP-1 cells). It counts as cell-based. As to conditions: with CGP-20712A, activity not observed up to a maximum concentration, read-out: β2-stimulating activity.
Description: as §1, §2, §3

Where a name gives a salt, the structure may show the parent alone.

T1 sequence (P08588 whole entry): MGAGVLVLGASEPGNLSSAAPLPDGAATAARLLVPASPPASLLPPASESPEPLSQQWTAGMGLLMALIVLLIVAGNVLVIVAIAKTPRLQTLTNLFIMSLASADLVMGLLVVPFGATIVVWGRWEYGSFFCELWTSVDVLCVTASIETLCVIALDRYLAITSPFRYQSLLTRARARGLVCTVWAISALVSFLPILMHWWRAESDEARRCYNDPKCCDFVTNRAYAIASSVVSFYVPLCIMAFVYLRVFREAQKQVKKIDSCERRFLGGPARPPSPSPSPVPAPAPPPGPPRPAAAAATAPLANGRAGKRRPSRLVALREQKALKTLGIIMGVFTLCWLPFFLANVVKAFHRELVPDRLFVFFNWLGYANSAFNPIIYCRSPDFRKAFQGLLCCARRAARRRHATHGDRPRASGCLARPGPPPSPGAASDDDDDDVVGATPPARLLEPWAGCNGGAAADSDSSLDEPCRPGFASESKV
T2 sequence (P13945 whole entry): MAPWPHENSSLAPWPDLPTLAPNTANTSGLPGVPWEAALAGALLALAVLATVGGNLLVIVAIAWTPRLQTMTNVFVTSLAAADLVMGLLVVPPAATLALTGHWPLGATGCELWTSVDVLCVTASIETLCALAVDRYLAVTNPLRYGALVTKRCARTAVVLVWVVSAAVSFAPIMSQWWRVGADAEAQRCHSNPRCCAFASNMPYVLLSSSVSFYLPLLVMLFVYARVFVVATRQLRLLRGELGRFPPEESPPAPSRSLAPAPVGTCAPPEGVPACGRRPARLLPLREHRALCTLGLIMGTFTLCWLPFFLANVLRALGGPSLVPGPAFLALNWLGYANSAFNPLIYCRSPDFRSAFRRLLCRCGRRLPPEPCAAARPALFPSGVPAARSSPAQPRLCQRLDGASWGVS

Take `C[C@H](Cc1c[nH]c2c(OCC(=O)O)cccc12)NC[C@H](O)c1cccc(Cl)c1` [AJ 9677, reference compound]: the “β1- and/or β2-adrenoceptor-stimulating activities in the conventional evaluation system” value on human β1-receptor (cells, method of Experiment 1 (β1 and β2, THP-1 cells)) is listed as “does not exhibit β1- and/or β2-adrenoceptor-stimulating activities”. The “β1- and/or β2-adrenoceptor-stimulating activities in the evaluation system using tissues” value in the test with β1-adrenoceptor is “exhibits β1- and/or β2-adrenoceptor-stimulating activities”.

Take `C[C@H](Cc1c[nH]c2c(OCC(=O)O)cccc12)NC[C@H](O)c1cccnc1` [Example 2, {3-[(2 R)-2-((2R)-2-Hydroxy-2-pyridin-3-ylethylamino)propyl]-1 H-indol-7-yloxy}acetic acid.2 trifluoroacetate]: the EC50 on human β3-receptor is 0.048 µM; at human β2-receptor, over 10 µM; at human β1-receptor (THP-1 cells, cAMP production, with ICI-118551, activity not observed up to a maximum concentration, read-out: β1-stimulating activity) it was over 10 µM.
